Assay results reported in patent publication US12129223B2, “Lipids for use in lipid nanoparticle formulations” (Acuitas Therapeutics, Inc., priority 2021, dated 2024).

Experiments:
human IgG in mouse serum = assay: Immunoglobulin G (IgG) mRNA in vivo evaluation using lipid nanoparticle compositions; set-up: species or system mice; details: LNP with IgG mRNA, tail vein injection, serum 24 hours after administration; for Serum IgG @ 0.3 mg/kg: 0.3 mg mRNA/kg; for Serum IgG @ 1.0 mg/kg: 1.0 mg mRNA/kg
Experimental: A lipid of structure (I), DSPC, cholesterol and PEG-lipid are solubilized in ethanol at a molar ratio of 50:10:38.5:1.5 or 47.5:10:40.7:1.8. Lipid nanoparticles (LNP) are prepared at a total lipid to mRNA weight ratio of approximately 10:1 to 40:1. Briefly, the mRNA is diluted to 0.2 mg/mL in 10 to 50 mM citrate buffer, pH 4 or 10 to 25 mM acetate buffer, pH 4. Syringe pumps are used to mix the ethanolic lipid solution with the mRNA aqueous solution at a ratio of about 1:5 to 1:3 (vol/vol) with total flow rates above 15 mL/min. The ethanol is then removed and the external buffer replaced with PBS by dialysis. Finally, the lipid nanoparticles are filtered through a 0.2 µm pore sterile filter.
Studies are performed in 6-8 week old CD-1/ICR mice (Envigo) according to guidelines established by an institutional animal care committee (ACC) and the Canadian Council on Animal Care (CCAC). Varying doses of mRNA-lipid nanoparticle are systemically administered by tail vein injection and animals euthanized at a specific time point (e.g., 24 hours) post-administration. The whole blood is collected, and the serum subsequentially separated by centrifuging the tubes of the whole blood at 2000×g for 10 minutes at 4° C. and stored at −80° C. until use for analysis.
For immunoglobulin G (IgG) ELISA (Life Diagnostics Human IgG ELISA kit), the serum samples are diluted at 100 to 15000 folds with 1×diluent solution. 100 μL of diluted serum is dispensed into anti-human IgG coated 96-well plate in duplicate alongside human IgG standards and incubated in a plate shaker at 150 rpm at 25° C. for 45 minutes. The wells are washed 5 times with 1× wash solution using a plate washer (400 μL/well). 100 μL of HRP conjugate is added into each well and incubated in a plate shaker at the same condition above. The wells are washed 5 times again with 1× wash solution using a plate washer (400 μL/well). 100 μL of TMB reagent is added into each well and incubated in a plate shaker at the same condition above. The reaction is stopped by adding 100 μL of Stop solution to each well. The absorbance is read at 450 nm (A450) with a microplate reader. The amount of human IgG in mouse serum is determined by plotting A450 values for the assay standard against human IgG concentration.
Representative compounds of the disclosure shown in Table 2 were formulated using the following molar ratio: 50% cationic lipid/10% distearoylphosphatidylcholine (DSPC)/38.5% Cholesterol/1.5% PEG lipid 2-[2-(ω-methoxy(polyethyleneglycol2000)ethoxy]-N,N-ditetradecyl acetamide) or 47.5% cationic lipid/10% DSPC/40.7% Cholesterol/1.8% PEG lipid. Relative activity was determined by measuring luciferase expression in the liver 4 hours following administration via tail vein injection as described in Example 1 or by measuring the amount of human IgG in mouse serum as described in example 2. The activity was compared at a dose of 1.0 or 0.5 or 0.3 mg mRNA/kg and expressed as ng luciferase/g liver measured 4 hours after administration, as described in Example 1 or as μg IgG/mL serum measured 24 hours after administration, as described in Example 2. Compound numbers in Table 2 refer to the compound numbers of Table 1.

[1] = Determination of pKa of formulated lipids (TNS fluorescence assay in lipid nanoparticles); type: physicochemical; details: lipid nanoparticles (compound/DSPC/cholesterol/PEG-lipid), lipid formulated in LNP (lipid/DSPC/cholesterol/PEG-lipid), pH at half-maximal intensity
Experimental: As described elsewhere, the pKa of formulated lipids is correlated with the effectiveness of LNPs for delivery of nucleic acids (see Jayaraman et al, Angewandte Chemie, International Edition (2012), 51(34), 8529-8533; Semple et al, Nature Biotechnology 28, 172-176 (2010)). In some embodiments, the preferred range of pKa is ˜5 to ˜7. The pKa of each lipid is determined in lipid nanoparticles using an assay based on fluorescence of 2-(p-toluidino)-6-napthalene sulfonic acid (TNS). Lipid nanoparticles comprising compound of structure (I)/DSPC/cholesterol/PEG-lipid (50/10/38.5/1.5 or 47.5:10:40.7:1.8 mol %) in PBS at a concentration of 0.4 mM total lipid are prepared using the in-line process as described in Example 1. TNS is prepared as a 100 μM stock solution in distilled water. Vesicles are diluted to 24 μM lipid in 2 mL of buffered solutions containing 10 mM HEPES, 10 mM MES, 10 mM ammonium acetate, and 130 mM NaCl, where the pH ranged from 2.5 to 11. An aliquot of the TNS solution is added to give a final concentration of 1 μM and following vortex mixing fluorescence intensity is measured at room temperature in a SLM Aminco Series 2 Luminescence Spectrophotometer using excitation and emission wavelengths of 321 nm and 445 nm. A sigmoidal best fit analysis is applied to the fluorescence data and the pKa is measured as the pH giving rise to half-maximal fluorescence intensity.

SMILES	Serum IgG @ 0.3 mg/kg (human IgG in mouse serum) [µg/mL]	Serum IgG @ 1.0 mg/kg (human IgG in mouse serum) [µg/mL]	pKa [1]
CCCCCCCCCCN(CCCCCCCCCC)C(=O)CCCCCCCN(CCCCCCCO)CCCCCCCC(=O)N(CCCCCCCCCC)CCCCCCCCCC [Compound I-45, 8,8′-((7-hydroxyheptyl)azanediyl)bis(N,N-didecyloctanamide)]	3.03 ± 0.66	13.00 ± 2.05	5.96
CCCCCCCCCCN(CCCCCCCCCC)C(=O)CCCCCCCN(CCCCCCCC(=O)N(CCCCCCCCCC)CCCCCCCCCC)CCCn1ccnc1 [Compound I-48, 8,8′-((3-(1H-imidazol-1-yl)propyl)azanediyl)bis(N,N-didecyloctanamide)]	1.02 ± 0.20	3.40 ± 0.87	6.63
CCCCCCCCCCN(CCCCCCCCCC)C(=O)CCCCCCCN(CCCCCCCC(=O)N(CCCCCCCCCC)CCCCCCCCCC)CCCNc1c(NC)c(=O)c1=O [Compound I-50, 8,8′-((3-((2-(methylamino)-3,4-dioxocyclobut-1-en-1-yl)amino)propyl)azanediyl)bis(N,N-didecyloctanamide)]	1.32 ± 0.28	11.05 ± 2.19	6.73
CCCCCCCCCCN(CCCCCCCCN(CCCCCO)CCCCCCCCN(CCCCCCCCCC)C(=O)CCCCCCCCC)C(=O)CCCCCCCCC [Compound I-66, N,N′-(((5-hydroxypentyl)azanediyl)bis(octane-8,1-diyl))bis(N-decyldecanamide)]	32.06 ± 5.07	253.37 ± 52.48	6.49
CCCCCCCCCCCCN(CCCCCCCCN(C)CCCCCCCCN(CCCCCCCCCCCC)C(=O)CCCCCCCCCCC)C(=O)CCCCCCCCCCC [Compound I-67, N,N′-((methylazanediyl)bis(octane-8,1-diyl))bis(N-dodecyldodecanamide)]	7.19 ± 1.41	62.94 ± 13.88	6.18
CCCCCCCCCCCCN(CCCCCCCCN(CCCCCO)CCCCCCCCN(CCCCCCCCCCCC)C(=O)CCCCCCCCCCC)C(=O)CCCCCCCCCCC [Compound I-68, N,N′-(((5-hydroxypentyl)azanediyl)bis(octane-8,1-diyl))bis(N-dodecyldodecanamide)]	12.30 ± 2.41	121.93 ± 34.85	6.41
CCCCCCCCCCN(CCCCCCCCN(C)CCCCCCCC(=O)N(CCCCCCCCCC)CCCCCCCCCC)C(=O)CCCCCCCCC [Compound I-73, N-decyl-N-(8-((8-(didecylamino)-8 oxooctyl)(methyl)amino)octyl)decanamide]	27.72 ± 6.23	213.39 ± 18.85	6.32
CCCCCCCCCCN(CCCCCCCCN(CCCCCO)CCCCCCCC(=O)N(CCCCCCCCCC)CCCCCCCCCC)C(=O)CCCCCCCCC [Compound I-74, N-decyl-N-(8-((8-(didecylamino)-8-oxooctyl)(5-hydroxypentyl)amino)octyl)decanamide]	50.16 ± 6.58	292.44 ± 40.55	6.53
CCCCCCCCCCN(CCCCCCCCCC)C(=O)CCCCCCN(C)CCCCCCC(=O)N(CCCCCCCCCC)CCCCCCCCCC [Compound I-75, 7,7′-(methylazanediyl)bis(N,N-didecylheptanamide)]	84.87 ± 12.19	343.06 ± 42.39	6.48
CCCCCCCCCCN(CCCCCCCCCC)C(=O)CCCCCCCN(CCCCCCCC(=O)N(CCCCCCCCCC)CCCCCCCCCC)CCN(C)C [Compound I-77]	17.45 ± 2.05		6.71
CCCCCCCCCCN(CCCCCCCCCC)C(=O)C(F)CCCCCCN(CCCCCO)CCCCCCC(F)C(=O)N(CCCCCCCCCC)CCCCCCCCCC (stereo not shown) [Compound I-82, 8,8′-((5-hydroxypentyl)azanediyl)bis(N,N-didecyl-2-fluorooctanamide)]	24.36 ± 4.39	239.26 ± 39.80	6.47
CCCCCCCCCCN(CCCCCCCCCC)C(=O)C(F)CCCCCCN(C)CCCCCCC(F)C(=O)N(CCCCCCCCCC)CCCCCCCCCC (stereo not shown) [Compound I-83, 8,8′-(methylazanediyl)bis(N,N-didecyl-2-fluorooctanamide)]	12.94 ± 2.03	142.26 ± 26.31	6.12
CCCCCCCCCCN(CCCCCCCCCC)C(=O)CCCN(CCCCCO)CCCC(=O)N(CCCCCCCCCC)CCCCCCCCCC [Compound I-85, 4,4′-((5-hydroxypentyl)azanediyl)bis(N,N-didecylbutanamide)]	10.74 ± 2.79		6.81
